Where two headings read alike, the source gives them in different places. Marks after values point to notes of the source that are not given here.
Legend:
[1] = system: male Wistar rats fed obesogenic diet high in sucrose and fat; experiment: Body weight, food intake, adipose tissue and muscle weights in rats fed an obesogenic diet with pterostilbene for 6 weeks; format: in vivo, rat; conditions: for decrease in total adipose tissue mass: versus control; for Adipose Tissue Weight, Epididymal / Adipose Tissue Weight, Interscapular Brown / Adipose Tissue Weight, Mesenteric / Adipose Tissue Weight, Perirenal / Adipose Tissue Weight, Subcutaneous / Adipose Tissue Weight, Total Fat Depots / Body Weight Increase / Food Intake / Final Body Weight: mean ± SEM; for Final Body Weight: n = 9, in g
Method: (§1) The experiment was conducted with twenty seven male Wistar rats with an initial body weight of 180±2 grams purchased from Harlan Ibérica (Barcelona, Spain), and took place in accordance with the University of the Basque Country's guide for the care and use of laboratory animals (Reference protocol approval CUEID CEBA/30/2010). The rats were individually housed in polycarbonate metabolic cages (Techniplast Gazzada, Guguggiate, Italy) and placed in an air-conditioned room (22±2° C.) with a 12 h light-dark cycle. After a 6-day adaptation period, rats were randomly divided in 3 dietary groups of nine animals each, and fed on a commercial obesogenic diet, high in sucrose (20.0%) and fat (22.5%) (Harlan Iberica, TD.06415). Pterostilbene was added to the diet. Rats in the pterostilbene groups received 15 mg/kg body weight/d (PT15 group) or 30 mg/kg body weight/d (PT30 group). All animals had free access to food and water. Food intake and body weight were daily measured.
At the end of the 6-week experimental period, animals were sacrificed, under anaesthesia (chloral hydrate), by cardiac exsanguination. White adipose tissue from different anatomical locations (perirenal, epididymal, mesenteric and subcutaneous) and liver were dissected, weighed and immediately frozen.

[2] = Serum and tissue levels of pterostilbene by GC-MS; format: in vivo, rat; conditions: for concentration at 6 weeks: male, Wistar, rat, oral
Method: as §1
Extraction of pterostilbene in the serum was according to published procedure (Kotani et al. 2003. J. Chromatogr. B. 788:269-275), with modifications. Serum from −80° C. storage was thawed on ice. To 50 μL serum was added 15 μL of β-glucuronidase (from E. coli, Type IX-A, Sigma-Aldrich, St. Louis, Mo., USA; 250 U/15 mL sodium phosphate buffer, 0.1M, pH 6.8) and 15 μL of sulfatase (from Abalone Entrails, Type VIII, Sigma-Aldrich, St. Louis, Mo., USA; 20 U/15 mL sodium phosphate buffer, 0.1M, pH 6.8), then vortex-mixed. This mixture was incubated for 20 hr at 37° C. while shaking at 750 rpm, cooled to room temperature, then partitioned with ethyl acetate (75 μL×3). The ethyl acetate layers were combined and dried under nitrogen. The dried sample was derivatized with 40 μL of N,O-bis[trimethylsilyl]-trifluoroacetamide: dimethyl-formamide (BSTFA:DMF, 1:1; Pierce Biotechnology, Inc., Rockford, Ill.), heated at 70° C. for 40 min and used for the analysis of pterostilbene by gas chromatography-mass spectrometry (GC-MS).
Pterostilbene in liver and muscle was extracted following published procedure (Hou et al. 2011. Planta Med. 77:455-460), with minor modifications. For liver, 100 mg fresh tissues were homogenized in 1 mL saline solution (0.9% NaCl in H2O). For muscle, 100 mg lyophilized tissue was homogenized in 1 mL sodium acetate buffer, pH 5. To the homogenates was added 300 μL enzyme solution (793.67 U/mL sulfatase and 666.66 U/mL β-glucuronidase in sodium acetate buffer, pH 5), vortex-mixed, and incubated at 37° C. for 16 hr while shaking at 750 rpm. To this mixture was added 100 μL of 0.1N HCl, then partitioned with ethyl acetate (800 μL×2). The ethyl acetate layers were combined, then dried under nitrogen. The dried sample was derivatized with BSTFA:DMF under the same conditions used for the analysis of pterostilbene in serum.
For the analysis of pterostilbene in epididymis and subcutaneous tissues, 100 mg of lyophilized tissue was homogenized in 300 μL of sodium acetate buffer, then sonicated for 30 min. To the homogenate was added 300 μl enzyme solution (793.67 U/mL sulfatase and 1333.33 U/mL β-glucuronidase in sodium acetate buffer, pH5) vortex-mixed, and incubated at 37° C., with shaking (750 rpm), for 16 hours. After incubation, 500 μl ice-cold acetonitrile was added, vortex-mixed for 1 min, then centrifuged at 800 rpm (Savant SpeedVac, model number SPD121P-120) for 20 min. The clear supernatant was collected, and again treated with 500 μl ice-cold acetonitrile, vortex-mixed and then centrifuged at 800 rpm for 20 min. The supernatant was then dried under a stream of nitrogen, then derivatized with BSTFA:DMF using the same conditions as in the analysis of pterostilbene in serum.
GC-MS analysis of pterostilbene in serum and tissues was performed using a J&W DB-5 capillary column (0.25 mm internal diameter, 0.25 μm film thickness, 30 m length; Agilent Technologies, Foster City, Calif.) on a JEOL GCMate II Instrument (JEOL USA Inc., Peabody, Mass.). […]

[3] = system: mice; conditions: mice fed 28 days at doses up to 3000 mg/kg body weight/d; cited from earlier work
[4] = in vivo; cited from earlier work
[5] = PT15: 15 mg/kg body weight/d in diet
[6] = PT30: 30 mg/kg body weight/d in diet

COc1cc(/C=C/c2ccc(O)cc2)cc(OC)c1 [pterostilbene]
decrease in total adipose tissue mass ([1]; PT15: 15 mg/kg BW/d): 15.1%
Adipose Tissue Weight, Epididymal [1, 5]: 10.5 ± 0.9 g
Adipose Tissue Weight, Interscapular Brown [1, 5]: 1.01 ± 0.23 g
Adipose Tissue Weight, Mesenteric [1, 5]: 5.2 ± 0.4^ab g
Adipose Tissue Weight, Perirenal [1, 5]: 12.0 ± 1.1^ab g
Adipose Tissue Weight, Subcutaneous [1, 5]: 12.6 ± 1.2^b g
Adipose Tissue Weight, Total Fat Depots [1, 5]: 40.3 ± 3.0^b g
Body Weight Increase [1, 5]: 206 ± 9 g
Food Intake [1, 5]: 17.7 ± 0.5 g/day
Final Body Weight [1, 5]: 382 ± 5
decrease in total adipose tissue mass ([1]; PT30: 30 mg/kg BW/d): 22.9%
Adipose Tissue Weight, Epididymal [1, 6]: 10.5 ± 1.1 g
Adipose Tissue Weight, Interscapular Brown [1, 6]: 0.75 ± 0.05 g
Adipose Tissue Weight, Mesenteric [1, 6]: 4.8 ± 0.5^b g
Adipose Tissue Weight, Perirenal [1, 6]: 11.2 ± 1.0^b g
Adipose Tissue Weight, Subcutaneous [1, 6]: 12.7 ± 1.6^b g
Adipose Tissue Weight, Total Fat Depots [1, 6]: 36.6 ± 3.5^b g
Body Weight Increase [1, 6]: 200 ± 6 g
Food Intake [1, 6]: 17.5 ± 0.3 g/day
Final Body Weight [1, 6]: 382 ± 5
Muscle level of pterostilbene ([2]; PT15: 15 mg/kg body weight/d in diet, 6 weeks): Not Detected
concentration at 6 weeks ([2]; epididymis, PT15: 15 mg/kg body weight/d in diet, dry weight, n = 8, read-out: Epididymis level of pterostilbene): 10.9 ± 5.3 ng/g
concentration at 6 weeks ([2]; epididymis, PT30: 30 mg/kg body weight/d in diet, dry weight, n = 8, read-out: Epididymis level of pterostilbene): 30.7 ± 11 ng/g
concentration at 6 weeks ([2]; liver, PT15: 15 mg/kg body weight/d in diet, fresh weight, n = 8, read-out: Liver level of pterostilbene): 308 ± 117 ng/g
concentration at 6 weeks ([2]; liver, PT30: 30 mg/kg body weight/d in diet, fresh weight, n = 6, read-out: Liver level of pterostilbene): 726 ± 112 ng/g
concentration at 6 weeks ([2]; muscle, PT30: 30 mg/kg body weight/d in diet, dry weight, n = 8, read-out: Muscle level of pterostilbene): 9.1 ± 2 ng/g
concentration at 6 weeks ([2]; serum, PT15: 15 mg/kg body weight/d in diet, after glucuronidase/sulfatase hydrolysis, n = 8, read-out: Serum level of pterostilbene): 384 ± 54.7 ng/mL
concentration at 6 weeks ([2]; serum, PT30: 30 mg/kg body weight/d in diet, after glucuronidase/sulfatase hydrolysis, n = 6, read-out: Serum level of pterostilbene): 789 ± 246 ng/mL
concentration at 6 weeks ([2]; subcutaneous tissue, PT15: 15 mg/kg body weight/d in diet, dry weight, n = 7, read-out: Subcutaneous tissue level of pterostilbene): 20.5 ± 13.7 ng/g
concentration at 6 weeks ([2]; subcutaneous tissue, PT30: 30 mg/kg body weight/d in diet, dry weight, n = 7, read-out: Subcutaneous tissue level of pterostilbene): 35.4 ± 7.7 ng/g
toxic or adverse biochemical effects compared to controls [3]: no significant toxic or adverse biochemical effects
half-life [4]: approximately 2 hr

Source: patent US20130296441A1, “Anti-Obesity Properties of Pterostilbene” (priority 2012, published 2013)
